Reference: article PMC6044503 (ACS Omega, 2017)
Where a SMILES comes first, the peptide text is derived from it. [ ]: non-standard residue; d: D form. The star is where a group is joined. Cha = N[C@@H](CC1CCCCC1)C(=O)O; Aib = CC(C)(N)C(=O)O; Bz = O=C(c1ccccc1)*

Assays:
[1] = Pharmacokinetics of PYY analogues in mice; type: in vivo; conditions: C57BL/6J, mouse, plasma, 1 mg/kg
[2] = target: T1, human Y2R (Homo sapiens, UniProt P49146); assay: biochemical; type: biochemical
T1 sequence (P49146 1-381): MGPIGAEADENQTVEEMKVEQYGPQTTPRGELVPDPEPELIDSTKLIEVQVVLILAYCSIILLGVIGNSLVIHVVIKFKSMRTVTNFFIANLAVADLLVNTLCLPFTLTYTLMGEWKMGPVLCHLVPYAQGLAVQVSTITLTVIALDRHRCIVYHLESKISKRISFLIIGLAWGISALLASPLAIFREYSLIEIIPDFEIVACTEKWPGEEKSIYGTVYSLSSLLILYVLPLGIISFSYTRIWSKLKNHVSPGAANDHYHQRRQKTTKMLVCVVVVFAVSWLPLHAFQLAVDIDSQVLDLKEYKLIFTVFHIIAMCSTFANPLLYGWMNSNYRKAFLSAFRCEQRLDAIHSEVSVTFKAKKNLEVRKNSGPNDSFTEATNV

[3] = test system: male C57BL/6J mice; assay: Food intake assay, bolus ip administration in lean mice; type: in vivo, mouse; conditions: 3 h after administration, vs saline, mean ± SD
[4] = target: T1, human Y2R; assay: biochemical; type: binding
[5] = Stability in 20% mouse serum/PBS; type: in vitro ADME; conditions: mouse, 20% mouse serum in PBS

Structure (SMILES): CC(C)C[C@H](NC(=O)[C@H](CC(N)=O)NC(=O)[C@H](CC1CCCCC1)NC(=O)[C@H](CC1CCCCC1)NC(=O)[C@H](Cc1cnc[nH]1)NC(=O)[C@H](CCCNC(=N)N)NC(=O)c1ccccc1)C(=O)NC(C)(C)C(=O)N[C@H](C(=O)N[C@@H](CCCNC(=N)N)C(=O)N[C@@H](CCC(N)=O)C(=O)N[C@@H](CCCNC(=N)N)C(=O)N[C@@H](CC1CCCCC1)C(N)=O)[C@@H](C)O [Compound 21, benzoyl-[Cha^27,28,36,Aib^31]PYY(25–36)] (Bz-RH[Cha][Cha]NL[Aib]TRQR[Cha]-NH2)
- Cmax ([1]; ip): 406 nM
- MRT ([1]; ip): 75 min
- Tmax ([1]; ip): 15 min
- bioavailability ([1]; ip): 6.8%
- MRT ([1]; iv): 27 min
- Vd ([1]; iv): 0.073 L/kg
- clearance ([1]; iv): 2.7 mL/min/kg

Structure (SMILES): CC[C@H](C)[C@H](NC(=O)[C@H](CC1CCCCC1)NC(=O)[C@H](Cc1c[nH]cn1)NC(=O)[C@H](CCCNC(=N)N)NC(=O)c1ccccc1)C(=O)N[C@@H](CC(N)=O)C(=O)N[C@@H](CC(C)C)C(=O)N[C@H](C(=O)N[C@H](C(=O)N[C@@H](CCCNC(=N)N)C(=O)N[C@@H](CCC(N)=O)C(=O)N[C@@H](CCCNC(=N)N)C(=O)N[C@@H](Cc1ccc(O)cc1)C(N)=O)[C@@H](C)O)[C@@H](C)CC [Compound 3] (Bz-RH[Cha]INLITRQRY-NH2)
- EC50 [2]: 1.9 nM
- % food intake inhibition ([3]; bolus ip 1000 nmol/kg): 17 ± 7%
- % food intake inhibition ([3]; bolus ip 2000 nmol/kg): 39 ± 7%
- IC50 [4]: 15 nM
- remaining at 0.5 h [5]: 10%

Structure (SMILES): CC[C@H](C)[C@H](NC(=O)[C@H](Cc1ccc(O)cc1)NC(=O)[C@H](C)NC(=O)[C@H](CCCNC(=N)N)NC(=O)c1ccccc1)C(=O)N[C@@H](CC(N)=O)C(=O)N[C@@H](CC(C)C)C(=O)N[C@H](C(=O)N[C@H](C(=O)N[C@@H](CCCNC(=N)N)C(=O)N[C@@H](CCC(N)=O)C(=O)N[C@@H](CCCNC(=N)N)C(=O)N[C@@H](CC1CCCCC1)C(N)=O)[C@@H](C)O)[C@@H](C)CC [Compound 2] (Bz-RAYINLITRQR[Cha]-NH2)
- EC50 [2]: 1.1 nM
- % food intake inhibition ([3]; bolus ip 2000 nmol/kg): 21 ± 5%
- IC50 [4]: 3.2 nM
- remaining at 0.5 h [5]: 53%
